From patent US10125129B2 (priority 2016, dated 2018)
Read-outs that look alike come from different tables or passages of the source.

Target: T1, μ opioid receptor (MOR) (Homo sapiens, UniProt P35372)
T1 construct: expressed in transfected cells
Assay: cell-based
Assay type: cell-based

T1 sequence (P35372 whole entry): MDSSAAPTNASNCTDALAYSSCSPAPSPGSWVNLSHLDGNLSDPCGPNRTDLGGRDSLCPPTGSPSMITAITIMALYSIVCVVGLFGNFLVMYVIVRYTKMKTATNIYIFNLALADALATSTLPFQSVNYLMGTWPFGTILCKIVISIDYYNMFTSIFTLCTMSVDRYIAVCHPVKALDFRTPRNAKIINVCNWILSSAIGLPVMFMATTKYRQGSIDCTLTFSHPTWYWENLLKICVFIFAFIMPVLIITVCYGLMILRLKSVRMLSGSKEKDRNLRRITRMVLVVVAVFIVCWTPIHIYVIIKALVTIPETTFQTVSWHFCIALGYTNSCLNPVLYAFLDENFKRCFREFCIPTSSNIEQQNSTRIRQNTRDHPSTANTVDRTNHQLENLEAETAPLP

SMILES	EC50 (Series 1 EC50) [nM]	EC50 (Series 2 EC50) [nM]	other results
COC(=O)[C@@H]1C[C@H](OC(=O)c2ccc(Cl)cc2)C(=O)[C@H]2[C@@]1(C)CC[C@H]1C(=O)O[C@H](c3ccoc3)C[C@]21C [Series 1 Entry 7, (2S,4aR,6aR,7R,9S,10aS,10bR)-Methyl 9-((4-chlorobenzoyl)oxy)-2-(furan-3-yl)-6a,10b-dimethyl-4,10-dioxododecahydro-1H-benzo[f]isochromene-7-carboxylate]	700 ± 100	–	–
COC(=O)[C@@H]1C=C(OC(=O)c2cncs2)C(=O)[C@H]2[C@@]1(C)CC[C@H]1C(=O)O[C@H](c3ccoc3)C[C@]21C [Table 3 Entry 8, (2S,4aR,6aR,7R,10aR,10bR)-2-(Furan-3-yl)-7-(methoxycarbonyl)-6a,10b-dimethyl-4,10-dioxo-2,4,4a,5,6,6a,7,10,10a,10b-decahydro-1H-benzo[f]isochromen-9-yl thiazole-5-carboxylate]	–	–	EC50 (EC50): > 10000 nM
COC(=O)[C@@H]1C[C@H](OC(=O)c2ccccc2OC)C(=O)[C@H]2[C@@]1(C)CC[C@H]1C(=O)O[C@H](c3ccoc3)C[C@]21C [Series 1 Entry 14]	3300 ± 300	–	–
COC(=O)[C@@H]1C[C@H](OC(=O)c2ccc(F)cc2)C(=O)[C@H]2[C@@]1(C)CC[C@H]1C(=O)O[C@H](c3ccoc3)C[C@]21C [Series 1 Entry 10, (2S,4aR,6aR,7R,9S,10aS,10bR)-Methyl 9-((4-fluorobenzoyl)oxy)-2-(furan-3-yl)-6a,10b-dimethyl-4,10-dioxododecahydro-1H-benzo[f]isochromene-7-carboxylate]	800 ± 200	–	–
COC(=O)[C@@H]1C=C(OC(=O)c2ccccc2[N+](=O)[O-])C(=O)[C@H]2[C@@]1(C)CC[C@H]1C(=O)O[C@H](c3ccoc3)C[C@]21C [Series 2 Entry 2, (2S,4aR,6aR,7R,10aR,10bR)-Methyl 2-(furan-3-yl)-6a,10b-dimethyl-9-((2-nitrobenzoyl)oxy)-4,10-dioxo-2,4,4a,5,6,6a,7,10,10a-decahydro-1H-benzo[f]isochromene-7-carboxylate]	–	1900 ± 600	–
COC(=O)[C@@H]1C[C@H](OC(=O)c2cccc(OC)c2)C(=O)[C@H]2[C@@]1(C)CC[C@H]1C(=O)O[C@H](c3ccoc3)C[C@]21C [Series 1 Entry 15]	330 ± 20	–	–
COC(=O)[C@@H]1C=C(OC(=O)c2cccc(Cl)c2)C(=O)[C@H]2[C@@]1(C)CC[C@H]1C(=O)O[C@H](c3ccoc3)C[C@]21C [Series 2 Entry 6, (2S,4aR,6aR,7R,10aR,10bR)-Methyl 9-((3-chlorobenzoyl)oxy)-2-(furan-3-yl)-6a,10b-dimethyl-4,10-dioxo-2,4,4a,5,6,6a,7,10,10a,10b-decahydro-1H-benzo[f]isochromene-7-carboxylate]	–	250 ± 30	–
COC(=O)[C@@H]1C=C(OC(=O)c2cccc(F)c2)C(=O)[C@H]2[C@@]1(C)CC[C@H]1C(=O)O[C@H](c3ccoc3)C[C@]21C [Series 2 Entry 9, (2S,4aR,6aR,7R,10aR,10bR)-Methyl 9-((3-fluorobenzoyl)oxy)-2-(furan-3-yl)-6a,10b-dimethyl-4,10-dioxo-2,4,4a,5,6,6a,7,10,10a,10b-decahydro-1H-benzo[f]isochromene-7-carboxylate]	–	15 ± 2	–
COC(=O)[C@@H]1C=C(OC(=O)c2ccc(OC)cc2)C(=O)[C@H]2[C@@]1(C)CC[C@H]1C(=O)O[C@H](c3ccoc3)C[C@]21C [Series 2 Entry 16, (2S,4aR,6aR,7R,10aR,10bR)-Methyl 2-(furan-3-yl)-9-((4-methoxybenzoyl)oxy)-6a,10b-dimethyl-4,10-dioxo-2,4,4a,5,6,6a,7,10,10a,10b-decahydro-1H-benzo[f]isochromene-7-carboxylate]	–	–	EC50 (read-out: Series 2 EC50): 8 ± 3 nM
COC(=O)[C@@H]1C[C@H](OC(=O)c2ccccn2)C(=O)[C@H]2[C@@]1(C)CC[C@H]1C(=O)O[C@H](c3ccoc3)C[C@]21C [Series 1 Entry 17, (2S,4aR,6aR,7R,9S,10aS,10bR)-2-(furan-3-yl)-7-(methoxycarbonyl)-6a,10b-dimethyl-4,10-dioxododecahydro-2H-benzo[f]isochromen-9-yl picolinate]	> 50000	–	–
